# Experimental data taken from ChEMBL document CHEMBL1201862, “PubChem BioAssay data set” (2004).
# Values joined by “and” are separate entries in the source; they are usually repeats but may differ in a detail not shown here. Equal entries are not always repeated.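 96-well plates; 48 h exposure; 5 concentrations. Endpoints by linear interpolation between flanking doses. Not reached: highest tested concentration assigned. GI50 marks 50% less growth.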 Active and inactive are the calls of the source. Rule as the data show it: active = GI50 up to about 1.1 µM and inactive = higher.
# Legend:
# Test in all cases: growth of human tumour cells (NCI), 48 h
# 786-0 = tested on: 786-0
# A498 = tested on: A498
# A549 = tested on: A549
# ACHN = tested on: ACHN
# CAKI-1 = tested on: CAKI-1
# HCT-15 = tested on: HCT-15
# HL-60 = tested on: HL-60
# HOP-92 = tested on: HOP-92
# Hs-578T = tested on: Hs-578T
# MDA-MB-435 = tested on: MDA-MB-435
# MDA-N = tested on: MDA-N
# MOLT-4 = tested on: MOLT-4
# Malme-3M = tested on: Malme-3M
# NCI-H226 = tested on: NCI-H226
# NCI-H23 = tested on: NCI-H23
# NCI-H522 = tested on: NCI-H522
# NCI/ADR-RES = tested on: NCI/ADR-RES
# OVCAR-3 = tested on: OVCAR-3
# OVCAR-4 = tested on: OVCAR-4
# OVCAR-5 = tested on: OVCAR-5
# PC-3 = tested on: PC-3
# SF-268 = tested on: SF-268
# SF-295 = tested on: SF-295
# SF-539 = tested on: SF-539
# SK-MEL-28 = tested on: SK-MEL-28
# SK-MEL-2 = tested on: SK-MEL-2
# SK-MEL-5 = tested on: SK-MEL-5
# SK-OV-3 = tested on: SK-OV-3
# SNB-19 = tested on: SNB-19
# SW-620 = tested on: SW-620
# T47D = tested on: T47D
# TK-10 = tested on: TK-10
# UACC-257 = tested on: UACC-257
# CCRF-CEM = tested on: CCRF-CEM
# COLO 205 = tested on: COLO 205
# DU-145 = tested on: DU-145
# EKVX = tested on: EKVX
# HCC 2998 = tested on: HCC 2998
# HOP-62 = tested on: HOP-62
# HT-29 = tested on: HT-29
# IGROV-1 = tested on: IGROV-1
# K562 = tested on: K562
# KM12 = tested on: KM12
# M14 = tested on: M14
# MCF7 = tested on: MCF7
# MDA-MB-231 = tested on: MDA-MB-231
# OVCAR-8 = tested on: OVCAR-8
# RPMI-8226 = tested on: RPMI-8226
# RXF 393 = tested on: RXF 393
# SN12C = tested on: SN12C
# SNB-75 = tested on: SNB-75
# SR = tested on: SR
# UACC-62 = tested on: UACC-62
# HCT-116 = tested on: HCT-116
# LOX IMVI = tested on: LOX IMVI
# NCI-H460 = tested on: NCI-H460
# U-251 = tested on: U-251
# UO-31 = tested on: UO-31
structure (smiles),measurement,setting,value
CN(C)c1ccc(/C=C/c2sc3ccccc3[n+]2C)cc1,GI50,786-0,1.82 µM (inactive) and 1.61 µM (inactive)
same,GI50,A498,14.9 µM (inactive) and 12.6 µM (inactive)
same,GI50,A549,2.2 µM (inactive) and 3.82 µM (inactive)
same,GI50,ACHN,1.46 µM (inactive) and 2.2 µM (inactive)
same,GI50,CAKI-1,2.52 µM (inactive) and 3.33 µM (inactive)
same,GI50,HCT-15,4.75 µM and 9.27 µM
same,GI50,HL-60,180 nM (active) and 348 nM (active)
same,GI50,HOP-92,3.65 µM (inactive) and 1.85 µM (inactive)
same,GI50,Hs-578T,4 µM (inactive) and 7.62 µM (inactive)
same,GI50,MDA-MB-435,813 nM (active) and 879 nM (active)
same,GI50,MDA-N,1.16 µM (inactive)
same,GI50,MOLT-4,270 nM (active) and 238 nM (active)
same,GI50,Malme-3M,1.54 µM (inactive) and 1.96 µM (inactive)
same,GI50,NCI-H226,3.71 µM (inactive) and 2.62 µM (inactive)
same,GI50,NCI-H23,1.07 µM (active) and 743 nM (active)
same,GI50,NCI-H522,1.93 µM (inactive) and 1.58 µM (inactive)
same,GI50,NCI/ADR-RES,36.9 µM (inactive) and > 57 µM (inactive)
same,GI50,OVCAR-3,550 nM (active) and 501 nM (active)
same,GI50,OVCAR-4,2.62 µM (inactive) and 2.71 µM (inactive)
same,GI50,OVCAR-5,12.7 µM (inactive) and 10.3 µM (inactive)
same,GI50,PC-3,1.09 µM (active) and 838 nM (active)
same,GI50,SF-268,3.29 µM (inactive) and 3.4 µM (inactive)
same,GI50,SF-295,3.29 µM (inactive) and 6.35 µM (inactive)
same,GI50,SF-539,3.18 µM (inactive) and 4.18 µM (inactive)
same,GI50,SK-MEL-28,1.85 µM (inactive) and 3.44 µM (inactive)
same,GI50,SK-MEL-2,2.82 µM (inactive) and 2.29 µM (inactive)
same,GI50,SK-MEL-5,1.09 µM (active) and 1.7 µM (inactive)
same,GI50,SK-OV-3,4.56 µM (inactive)
same,GI50,SNB-19,2.09 µM (inactive) and 1.99 µM (inactive)
same,GI50,SW-620,433 nM (active) and 427 nM (active)
same,GI50,T47D,2.47 µM (inactive) and 4.05 µM (inactive)
same,GI50,TK-10,5.65 µM (inactive) and 3.37 µM (inactive)
same,GI50,UACC-257,1.82 µM (inactive) and 1.6 µM (inactive)
CCC1(c2ccccc2)Sc2ccccc2-n2cccc2C1=O (stereo not given),GI50,786-0,> 10 µM (inactive)
same,GI50,A549,> 10 µM (inactive)
same,GI50,CAKI-1,> 10 µM (inactive)
same,GI50,CCRF-CEM,> 10 µM (inactive)
same,GI50,COLO 205,> 10 µM (inactive)
same,GI50,DU-145,> 10 µM (inactive)
same,GI50,EKVX,> 10 µM (inactive)
same,GI50,HCC 2998,> 10 µM (inactive)
same,GI50,HCT-15,8.79 µM
same,GI50,HL-60,4.12 µM (inactive)
same,GI50,HOP-62,> 10 µM (inactive)
same,GI50,HT-29,9.62 µM (inactive)
same,GI50,IGROV-1,> 10 µM (inactive)
same,GI50,K562,4.6 µM (inactive)
same,GI50,KM12,7.8 µM (inactive)
same,GI50,M14,> 10 µM (inactive)
same,GI50,MCF7,> 10 µM (inactive)
same,GI50,MDA-MB-231,9.31 µM (inactive)
same,GI50,MDA-N,3.5 µM (inactive)
same,GI50,MOLT-4,5.37 µM (inactive)
same,GI50,Malme-3M,8.34 µM (inactive)
same,GI50,NCI-H23,> 10 µM (inactive)
same,GI50,OVCAR-8,> 10 µM (inactive)
same,GI50,PC-3,8.53 µM (inactive)
same,GI50,RPMI-8226,4.32 µM (inactive)
same,GI50,RXF 393,9.79 µM (inactive)
same,GI50,SF-295,> 10 µM (inactive)
same,GI50,SK-MEL-28,> 10 µM (inactive)
same,GI50,SK-MEL-5,> 10 µM (inactive)
same,GI50,SK-OV-3,> 10 µM (inactive)
same,GI50,SN12C,> 10 µM (inactive)
same,GI50,SNB-75,> 10 µM (inactive)
same,GI50,SR,3.79 µM (inactive)
same,GI50,SW-620,> 10 µM (inactive)
same,GI50,T47D,> 10 µM (inactive)
same,GI50,TK-10,> 10 µM (inactive)
same,GI50,UACC-257,> 10 µM (inactive)
same,GI50,UACC-62,> 10 µM (inactive)
Cc1ccc(S(=O)(=O)NCCSCCSCCNS(=O)(=O)c2ccc(C)cc2)cc1,GI50,A498,10 µM (inactive)
same,GI50,A549,30.5 µM (inactive)
same,GI50,ACHN,48.6 µM (inactive)
same,GI50,CCRF-CEM,36.9 µM (inactive)
same,GI50,COLO 205,19.4 µM (inactive)
same,GI50,DU-145,51.2 µM (inactive)
same,GI50,HCC 2998,39.4 µM (inactive)
same,GI50,HCT-116,34.7 µM (inactive)
same,GI50,HOP-92,22 µM (inactive)
same,GI50,HT-29,28.6 µM (inactive)
same,GI50,Hs-578T,47.2 µM (inactive)
same,GI50,K562,48.6 µM (inactive)
same,GI50,KM12,25.6 µM (inactive)
same,GI50,LOX IMVI,25.4 µM (inactive)
same,GI50,MCF7,38.9 µM (inactive)
same,GI50,MDA-N,56 µM (inactive)
same,GI50,MOLT-4,34 µM (inactive)
same,GI50,NCI-H226,49 µM (inactive)
same,GI50,NCI-H460,25.4 µM (inactive)
same,GI50,NCI-H522,62.5 µM (inactive)
same,GI50,NCI/ADR-RES,24 µM (inactive)
same,GI50,OVCAR-4,34.8 µM (inactive)
same,GI50,OVCAR-8,47.2 µM (inactive)
same,GI50,PC-3,22.6 µM (inactive)
same,GI50,RXF 393,56.2 µM (inactive)
same,GI50,SF-268,24 µM (inactive)
same,GI50,SF-295,45.8 µM (inactive)
same,GI50,SK-MEL-28,> 100 µM (inactive)
same,GI50,SK-MEL-5,4.7 µM (inactive)
same,GI50,SK-OV-3,18.4 µM (inactive)
same,GI50,SN12C,47.4 µM (inactive)
same,GI50,SNB-19,63.4 µM (inactive)
same,GI50,SNB-75,20.8 µM (inactive)
same,GI50,SR,37.2 µM (inactive)
same,GI50,SW-620,44.6 µM (inactive)
same,GI50,TK-10,53.2 µM (inactive)
same,GI50,U-251,4.6 µM (inactive)
same,GI50,UACC-257,34.4 µM (inactive)
same,GI50,UO-31,34.1 µM (inactive)
COC(=O)[C@@H](NC1(c2ccccc2)c2ccccc2-c2ccccc21)[C@H](OC(=O)[C@H]1CCCN1S(=O)(=O)c1ccccc1)C(=O)OC,GI50,786-0,> 100 µM (inactive)
same,GI50,A498,> 100 µM (inactive)
same,GI50,A549,> 100 µM (inactive)
same,GI50,ACHN,> 100 µM (inactive)
same,GI50,CCRF-CEM,> 100 µM (inactive)
same,GI50,COLO 205,> 100 µM (inactive)
same,GI50,DU-145,> 100 µM (inactive)
same,GI50,EKVX,99.5 µM (inactive)
same,GI50,HCC 2998,> 100 µM (inactive)
same,GI50,HCT-116,> 100 µM (inactive)
same,GI50,HCT-15,> 100 µM
same,GI50,HL-60,> 100 µM (inactive)
same,GI50,HOP-62,> 100 µM (inactive)
same,GI50,HOP-92,< 0.01 µM (active)
same,GI50,HT-29,> 100 µM (inactive)
same,GI50,IGROV-1,> 100 µM (inactive)
same,GI50,K562,> 100 µM (inactive)
same,GI50,KM12,> 100 µM (inactive)
same,GI50,LOX IMVI,> 100 µM (inactive)
same,GI50,M14,> 100 µM (inactive)
same,GI50,MCF7,> 100 µM (inactive)
same,GI50,MDA-MB-231,> 100 µM (inactive)
same,GI50,MDA-MB-435,> 100 µM (inactive)
same,GI50,MDA-N,72.9 µM (inactive)
same,GI50,MOLT-4,> 100 µM (inactive)
same,GI50,Malme-3M,> 100 µM (inactive)
same,GI50,NCI-H226,> 100 µM (inactive)
same,GI50,NCI-H23,> 100 µM (inactive)
same,GI50,NCI-H460,> 100 µM (inactive)
same,GI50,NCI-H522,82.2 µM (inactive)
same,GI50,NCI/ADR-RES,> 100 µM (inactive)
same,GI50,OVCAR-3,> 100 µM (inactive)
same,GI50,OVCAR-4,> 100 µM (inactive)
same,GI50,OVCAR-5,> 100 µM (inactive)
same,GI50,OVCAR-8,> 100 µM (inactive)
same,GI50,PC-3,> 100 µM (inactive)
same,GI50,RXF 393,> 100 µM (inactive)
same,GI50,SF-268,> 100 µM (inactive)
same,GI50,SF-295,> 100 µM (inactive)
same,GI50,SF-539,> 100 µM (inactive)
same,GI50,SK-MEL-28,> 100 µM (inactive)
same,GI50,SK-MEL-2,39.8 µM (inactive)
same,GI50,SK-MEL-5,> 100 µM (inactive)
same,GI50,SK-OV-3,70.6 µM (inactive)
same,GI50,SN12C,> 100 µM (inactive)
same,GI50,SNB-19,> 100 µM (inactive)
same,GI50,SNB-75,63.2 µM (inactive)
same,GI50,SR,> 100 µM (inactive)
same,GI50,SW-620,> 100 µM (inactive)
same,GI50,T47D,> 100 µM (inactive)
same,GI50,TK-10,> 100 µM (inactive)
same,GI50,U-251,> 100 µM (inactive)
same,GI50,UACC-257,> 100 µM (inactive)
same,GI50,UACC-62,> 100 µM (inactive)
same,GI50,UO-31,> 100 µM (inactive)
